# Reference: publication PMC6156078, “Thalidomide promotes degradation of SALL4, a transcription factor implicated in Duane Radial Ray syndrome” (eLife, 2018)
# Tests used:
# SALL4 [1] = target: T1, SALL4 (Homo sapiens, UniProt Q9UJQ4); assay: TMT proteomics H9 hESC: SALL4 abundance; type: cell-based; conditions: H9 hES cells, 5 h vs DMSO; thalidomide 10 µM, lenalidomide 5 µM, pomalidomide 1 µM
# Description: (§1) We established a mass spectrometry-based workflow (Figure 1—figure supplement 1A) to detect IMiD-induced protein degradation in hESC.
# (§2) Proteins were precipitated using methanol/chloroform.
# FAM83F = FAM83F (Homo sapiens, UniProt Q8NEG4); assay: TMT proteomics H9 hESC: FAM83F abundance; type: cell-based; conditions: H9 hES cells, 5 h vs DMSO; thalidomide 10 µM, lenalidomide 5 µM, pomalidomide 1 µM
# Description: as §1, §2
# ZBTB39 [2] = target: T2, ZBTB39 (Homo sapiens, UniProt O15060+Q96SW2); assay: TMT proteomics H9 hESC: ZBTB39 abundance; type: cell-based; conditions: H9 hES cells, 5 h vs DMSO; thalidomide 10 µM, lenalidomide 5 µM, pomalidomide 1 µM
# Description: as §1, §2
# DTWD1 = DTWD1 (Homo sapiens, UniProt Q8N5C7+Q96SW2); assay: TMT proteomics H9 hESC: DTWD1 abundance; type: cell-based; conditions: H9 hES cells, 5 h vs DMSO; thalidomide 10 µM, lenalidomide 5 µM, pomalidomide 1 µM
# Description: as §1, §2
# VRTN = target: T3, VRTN (Homo sapiens, UniProt Q9H8Y1); assay: TMT proteomics H9 hESC: VRTN abundance; type: cell-based; conditions: H9 hES cells, 5 h vs DMSO; thalidomide 10 µM, pomalidomide 1 µM
# T3 construct: endogenous in cells; host or cells: H9 hESC
# T3 sequence (Q9H8Y1 whole entry): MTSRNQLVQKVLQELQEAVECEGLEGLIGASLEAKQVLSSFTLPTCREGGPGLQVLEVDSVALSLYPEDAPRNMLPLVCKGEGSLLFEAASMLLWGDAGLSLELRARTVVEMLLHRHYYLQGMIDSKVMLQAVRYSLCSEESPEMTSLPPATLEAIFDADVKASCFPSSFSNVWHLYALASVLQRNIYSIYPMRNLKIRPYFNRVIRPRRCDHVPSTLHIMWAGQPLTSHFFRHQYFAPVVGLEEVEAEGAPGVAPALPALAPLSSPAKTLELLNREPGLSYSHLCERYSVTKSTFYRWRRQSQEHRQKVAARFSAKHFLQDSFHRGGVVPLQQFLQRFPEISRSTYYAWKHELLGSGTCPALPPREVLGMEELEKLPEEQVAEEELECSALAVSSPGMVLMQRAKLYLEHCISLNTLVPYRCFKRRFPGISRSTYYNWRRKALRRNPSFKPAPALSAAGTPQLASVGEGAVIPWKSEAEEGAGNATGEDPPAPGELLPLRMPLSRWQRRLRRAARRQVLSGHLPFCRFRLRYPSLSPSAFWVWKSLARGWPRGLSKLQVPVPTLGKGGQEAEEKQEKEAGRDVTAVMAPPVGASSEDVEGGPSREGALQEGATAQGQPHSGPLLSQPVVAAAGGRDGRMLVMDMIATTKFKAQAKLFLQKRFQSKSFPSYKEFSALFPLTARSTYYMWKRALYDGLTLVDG
# Description: as §1, §2
# [3] = tested on: IMiD-dependent neo-substrates; assay: TMT proteomics profiling of IMiD-dependent neo-substrates (hESC, Kelly, SK-N-DZ, MM1s); type: cell-based, human
# Description: as §1, §2
# SALL4 [4] = assay: Western blot of SALL4 in CRBN-/- Kelly and HEK293T cells; type: cell-based, human; conditions: increasing concentrations, 24 h
# [5] = target: hsSALL4ZnF2 / DDB1∆B-CRBN (Homo sapiens, UniProt Q96SW2+Q9UJQ4); assay: TR-FRET IMiD-dependent binding of SALL4ZnF2 to CRBN; conditions: DDB1∆B-CRBN 200 nM, hsSALL4ZnF2 100 nM
# Description: The TR-FRET signal of each data point was extracted by calculating the 520/490 nm ratios.
# mmSALL4 = target: T4, mmSALL4 (Mus musculus, UniProt Q8BX22); assay: Western blot of mmSALL4 in mouse embryonic stem cells; type: cell-based; conditions: increasing concentrations, 24 h
# T4 construct: endogenous in cells; host or cells: TC1 mouse embryonic stem cells
# T4 sequence (Q8BX22 whole entry): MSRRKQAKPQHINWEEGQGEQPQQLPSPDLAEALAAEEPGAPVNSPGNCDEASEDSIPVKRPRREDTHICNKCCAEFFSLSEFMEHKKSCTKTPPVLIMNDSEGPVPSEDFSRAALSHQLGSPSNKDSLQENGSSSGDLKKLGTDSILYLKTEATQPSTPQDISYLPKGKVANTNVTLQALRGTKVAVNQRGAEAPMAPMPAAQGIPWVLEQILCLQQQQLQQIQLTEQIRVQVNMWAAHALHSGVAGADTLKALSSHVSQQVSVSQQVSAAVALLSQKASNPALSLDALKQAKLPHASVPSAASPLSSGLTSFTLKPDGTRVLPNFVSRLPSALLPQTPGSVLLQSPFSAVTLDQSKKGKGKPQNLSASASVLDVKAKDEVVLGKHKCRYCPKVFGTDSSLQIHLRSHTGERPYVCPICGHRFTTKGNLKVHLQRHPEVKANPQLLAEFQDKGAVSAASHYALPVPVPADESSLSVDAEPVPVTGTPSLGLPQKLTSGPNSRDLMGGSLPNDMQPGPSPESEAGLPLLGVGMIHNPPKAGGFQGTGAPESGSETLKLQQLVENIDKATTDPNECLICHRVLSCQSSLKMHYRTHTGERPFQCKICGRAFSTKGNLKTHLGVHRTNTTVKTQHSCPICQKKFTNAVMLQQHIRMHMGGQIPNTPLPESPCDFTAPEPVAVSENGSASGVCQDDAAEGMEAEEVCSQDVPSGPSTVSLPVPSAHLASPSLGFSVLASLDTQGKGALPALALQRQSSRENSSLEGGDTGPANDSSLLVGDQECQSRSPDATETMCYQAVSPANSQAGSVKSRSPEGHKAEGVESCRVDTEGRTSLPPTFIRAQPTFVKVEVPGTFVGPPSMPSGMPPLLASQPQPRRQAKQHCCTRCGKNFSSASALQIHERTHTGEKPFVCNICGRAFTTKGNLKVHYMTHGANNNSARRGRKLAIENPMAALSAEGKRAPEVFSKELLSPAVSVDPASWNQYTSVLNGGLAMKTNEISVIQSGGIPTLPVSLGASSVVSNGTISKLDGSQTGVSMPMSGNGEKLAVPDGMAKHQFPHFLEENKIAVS
# SALL4 [6] = target: T1, SALL4; conditions: Kelly cells
# [7] = typical dose 200–400 mg thalidomide, 25 mg lenalidomide, 2 mg pomalidomide, ref Chen et al., 2017, Hoffmann et al., 2013, Teo et al., 2004, cited from earlier work
# IKZF1 = IKZF1 (Homo sapiens, UniProt Q13422+Q96SW2); assay: TMT proteomics MM1s cells: IKZF1 abundance; conditions: 5 h vs DMSO, thalidomide 10 µM, lenalidomide 5 µM, pomalidomide 1 µM
# IKZF3 = IKZF3 (Homo sapiens, UniProt Q96SW2+Q9UKT9); assay: TMT proteomics MM1s cells: IKZF3 abundance; conditions: 5 h vs DMSO, thalidomide 10 µM, lenalidomide 5 µM, pomalidomide 1 µM
# RAB28 [8] = target: T5, RAB28 (Homo sapiens, UniProt P51157); assay: TMT proteomics MM1s cells: RAB28 abundance; conditions: 5 h vs DMSO, thalidomide 10 µM, lenalidomide 5 µM, pomalidomide 1 µM
# ZFP91 [9] = target: T6, ZFP91 (Homo sapiens, UniProt Q96JP5+Q96SW2); assay: TMT proteomics MM1s cells: ZFP91 abundance; conditions: 5 h vs DMSO, thalidomide 10 µM, lenalidomide 5 µM, pomalidomide 1 µM
# SALL4 [10] = target: T1, SALL4; assay: TMT proteomics Kelly cells: SALL4 abundance; conditions: 5 h vs DMSO, thalidomide 10 µM, lenalidomide 5 µM, pomalidomide 1 µM
# SQRDL; SQOR = assay: TMT proteomics MM1s cells: SQRDL abundance; conditions: 5 h vs DMSO, pomalidomide 1 µM
# ZFP91 [11] = target: T6, ZFP91; assay: TMT proteomics Kelly cells: ZFP91 abundance; conditions: 5 h vs DMSO, thalidomide 10 µM, lenalidomide 5 µM, pomalidomide 1 µM
# CLIC4 = assay: TMT proteomics Kelly cells: CLIC4 abundance; conditions: 5 h vs DMSO, pomalidomide 1 µM
# COX5A = assay: TMT proteomics Kelly cells: COX5A abundance; conditions: 5 h vs DMSO, pomalidomide 1 µM
# GZF1 = GZF1 (Homo sapiens, UniProt Q96SW2+Q9H116); assay: TMT proteomics SK-N-DZ cells: GZF1 abundance; conditions: 5 h vs DMSO, pomalidomide 1 µM, lenalidomide 5 µM, CC-220 0.1 µM, dBET57 1 µM
# ARPP19 = assay: TMT proteomics Kelly cells: ARPP19 abundance; conditions: 5 h vs DMSO, pomalidomide 1 µM
# RAB28 [12] = target: T5, RAB28; assay: TMT proteomics SK-N-DZ cells: RAB28 abundance; conditions: 5 h vs DMSO, pomalidomide 1 µM, lenalidomide 5 µM, CC-220 0.1 µM, dBET57 1 µM
# ZFP91 [13] = target: T6, ZFP91; assay: TMT proteomics SK-N-DZ cells: ZFP91 abundance; conditions: 5 h vs DMSO, pomalidomide 1 µM, lenalidomide 5 µM, CC-220 0.1 µM, dBET57 1 µM
# ZNF98 = ZNF98 (Homo sapiens, UniProt A6NK75+Q96SW2); assay: TMT proteomics SK-N-DZ cells: ZNF98 abundance; conditions: 5 h vs DMSO, pomalidomide 1 µM, lenalidomide 5 µM, CC-220 0.1 µM, dBET57 1 µM
# ZBTB39 [14] = target: T2, ZBTB39; assay: TMT proteomics SK-N-DZ cells: ZBTB39 abundance; conditions: 5 h vs DMSO, pomalidomide 1 µM, lenalidomide 5 µM, CC-220 0.1 µM, dBET57 1 µM
# ILF3 = assay: Rescue proteomics SK-N-DZ cells: ILF3 abundance; conditions: 1 µM pomalidomide, 5 h vs DMSO, rescue experiment (source data 13)
# TLN2 = assay: Rescue proteomics SK-N-DZ cells: TLN2 abundance; conditions: 1 µM pomalidomide, 5 h vs DMSO, rescue experiment (source data 13)
# RTN4 = assay: Rescue proteomics SK-N-DZ cells: RTN4 abundance; conditions: 1 µM pomalidomide, 5 h vs DMSO, rescue experiment (source data 13)
# GAP43 = assay: Rescue proteomics SK-N-DZ cells: GAP43 abundance; conditions: 1 µM pomalidomide, 5 h vs DMSO, rescue experiment (source data 13)
# [15] = tested on: HIST1H4A; HIST1H4F; HIST1H4D; HIST1H4J; HIST2H4A; HIST2H4B; HIST1H4H; HIST1H4C; HIST4H4; HIST1H4E; HIST1H4I; HIST1H4B; HIST1H4K; HIST1H4L; assay: Rescue proteomics SK-N-DZ cells: histone H4 abundance; conditions: 1 µM pomalidomide, 5 h vs DMSO, rescue experiment (source data 13)
# SALL4 [16] = target: T1, SALL4; assay: Western blot of SALL4 in Kelly, SK-N-DZ, HEK293T and H661 cells; conditions: increasing concentrations, 24 h
# SALL4 [17] = target: T1, SALL4; assay: Western blot of SALL4 in H9 hESC; type: cell-based; design: endogenous in cells; host or cells: Kelly, H9 hESC, SK-N-DZ cells; conditions: increasing doses, 24 h
compound,measurement,setting,value
Nc1cccc2c1C(=O)N(C1CCC(=O)NC1=O)C2=O (stereo not shown) [pomalidomide],logFC SALL4,SALL4 [1],-1.645
same,logFC FAM83F,FAM83F,-1.309
same,logFC ZBTB39,ZBTB39 [2],-1.656
same,logFC DTWD1,DTWD1,-1.822
same,logFC VRTN,VRTN,-0.4677
same,number of substrates identified (rank order),[3]; H9 hESC proteomics,Thal < Len << Pom
same,proteins degraded upon treatment (besides SALL4),"[3]; H9 hESC, 5 h, 5 µM lenalidomide, 1 µM pomalidomide","ZFP91 ([An et al., 2017]) and the largely uncharacterized proteins ZBTB39, FAM83F, WIZ, RAB28, and DTWD1"
same,substrates robustly degraded (each drug in addition to the preceding one),"[3]; proteomics across hESC, MM1s, Kelly, SK-N-DZ cells","ZBTB39, ZFP91, DTWD1, and ZNF653"
same,SALL4 degradation in CRBN-/- cells,SALL4 [4],no degradation of SALL4 was observed
same,rank order in binding observed with ZnF2,[5],Pom >Thal >> Len
same,degradation of mmSALL4 in mESC,mmSALL4,does not promote degradation of mmSALL4
same,earliest time of SALL4 degradation post treatment,SALL4 [6]; 1 or 5 µM pomalidomide,4 h
same,time post washout at which SALL4 recovered to levels close to pre-treatment,SALL4 [6]; pomalidomide 8 h then washout,48 h
same,plasma half-life (t1/2),[7],~ 9 h
same,Cmax,[7]; read-out: maximum plasma concentration (Cmax),50 nM
same,logFC IKZF1,IKZF1,-2.094
same,logFC IKZF3,IKZF3,-2.635
same,logFC RAB28,RAB28 [8],-1.819
same,logFC ZFP91,ZFP91 [9],-1.964
same,logFC SALL4,SALL4 [10],-1.873
same,logFC SQRDL; SQOR,SQRDL; SQOR,0.2873
same,logFC ZFP91,ZFP91 [11],-0.9865
same,logFC CLIC4,CLIC4,-0.176
same,logFC COX5A,COX5A,0.352
same,logFC GZF1,GZF1,-0.5859
same,logFC ARPP19,ARPP19,0.611
same,logFC RAB28,RAB28 [12],-1.455
same,logFC ZFP91,ZFP91 [13],-1.944
same,logFC ZNF98,ZNF98,-1.487
same,logFC ZBTB39,ZBTB39 [14],-1.448
same,logFC ILF3,ILF3,-0.0757
same,logFC TLN2,TLN2,-0.06109
same,logFC RTN4,RTN4,-0.1703
same,logFC GAP43,GAP43,-0.1693
same,logFC HIST1H4A (histone H4 genes),[15],-0.1522
same,SALL4 protein levels (western blot),SALL4 [16],dose-dependent decrease in SALL4 protein levels
same,SALL4 protein levels (western blot),SALL4 [17],dose-dependent decrease in protein levels
